Measured values reported in ChEMBL document CHEMBL1201862, “PubChem BioAssay data set” (2004).
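Method: 48-hour compound exposure of cells in 96-well plates, five concentrations, linear interpolation of endpoints. GI50 = concentration required for 50% inhibition of growth.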 The source made the active and inactive calls. Cut-off read from the data, not from the text of the source: active = GI50 up to about 1.1 µM and inactive = higher.

Columns and labels:
Assay in all cases: growth of human tumour cells (NCI), 48 h
[1] = system: TK-10
[2] = system: NCI-H23
[3] = system: UACC-62
[4] = system: HCT-116
[5] = system: DLD-1
[6] = system: A498
[7] = system: SW-620
[8] = system: KM-20L2
[9] = system: LXFL 529
[10] = system: SK-OV-3
[11] = system: CCRF-CEM
[12] = system: SN12C
[13] = system: U-251
[14] = system: K562
[15] = system: SK-MEL-5
[16] = system: XF498
[17] = system: COLO 205
[18] = system: 786-0
[19] = system: M19-MEL
[20] = system: LOX IMVI
[21] = system: HCC 2998
[22] = system: KM12
[23] = system: A549
[24] = system: NCI-H522
[25] = system: EKVX
[26] = system: SNB-19
[27] = system: HOP-92
[28] = system: IGROV-1
[29] = system: HOP-18
[30] = system: OVCAR-4
[31] = system: SNB-78
[32] = system: SF-539
[33] = system: RXF 631
[34] = system: SF-268
[35] = system: UO-31
[36] = system: RXF 393
[37] = system: DMS-273
[38] = system: OVCAR-5
[39] = system: Malme-3M
[40] = system: SNB-75
[41] = system: HOP-62
[42] = system: SK-MEL-28
[43] = system: DMS-114
[44] = system: CAKI-1
[45] = system: M14
[46] = system: SF-295
[47] = system: UACC-257
[48] = system: OVCAR-8
[49] = system: NCI-H460
[50] = system: OVCAR-3
[51] = system: RPMI-8226
[52] = system: HL-60
[53] = system: HT-29
[54] = system: ACHN
[55] = system: NCI-H226
[56] = system: SR
[57] = system: HCT-15
[58] = system: MOLT-4
[59] = system: SK-MEL-2

Compound: c1ccc([P+](CCC[P+](c2ccccc2)(c2ccccc2)c2ccccc2)(c2ccccc2)c2ccccc2)cc1
- GI50 [1]: 86.7 µM (inactive)
- GI50 [2]: 25.2 µM (inactive)
- GI50 [3]: 26.1 µM (inactive)
- GI50 [4]: 20.1 µM (inactive)
- GI50 [5]: 56.6 µM (inactive)
- GI50 [6]: 93.5 µM (inactive)
- GI50 [7]: 36.7 µM (inactive)
- GI50 [8]: 33.5 µM (inactive)
- GI50 [9]: 11.3 µM (inactive)
- GI50 [10]: > 100 µM (inactive)
- GI50 [11]: 22.4 µM (inactive)
- GI50 [12]: 33.3 µM (inactive)
- GI50 [13]: 6.65 µM (inactive)
- GI50 [14]: 8.2 µM (inactive)
- GI50 [15]: 20.2 µM (inactive)
- GI50 [16]: 23.7 µM (inactive)
- GI50 [17]: 21.8 µM (inactive)
- GI50 [18]: > 100 µM (inactive)
- GI50 [19]: 19.9 µM (inactive)
- GI50 [20]: 23.7 µM (inactive)
- GI50 [21]: 32.2 µM (inactive)
- GI50 [22]: 24.4 µM (inactive)
- GI50 [23]: 34 µM (inactive)
- GI50 [24]: 19.5 µM (inactive)
- GI50 [25]: > 100 µM (inactive)
- GI50 [26]: 16.3 µM (inactive)
- GI50 [27]: 20.1 µM (inactive)
- GI50 [28]: 41.7 µM (inactive)
- GI50 [29]: 54.7 µM (inactive)
- GI50 [30]: 57 µM (inactive)
- GI50 [31]: 52.8 µM (inactive)
- GI50 [32]: 39 µM (inactive)
- GI50 [33]: > 100 µM (inactive)
- GI50 [34]: 40.4 µM (inactive)
- GI50 [35]: > 99.5 µM (inactive)
- GI50 [36]: 64.4 µM (inactive)
- GI50 [37]: 9.91 µM (inactive)
- GI50 [38]: 71.1 µM (inactive)
- GI50 [39]: 70.8 µM (inactive)
- GI50 [40]: 31.8 µM (inactive)
- GI50 [41]: 49.3 µM (inactive)
- GI50 [42]: 33.5 µM (inactive)
- GI50 [43]: 16.5 µM (inactive)
- GI50 [44]: > 100 µM (inactive)
- GI50 [45]: 71.9 µM (inactive)
- GI50 [46]: 31.3 µM (inactive)
- GI50 [47]: 24 µM (inactive)
- GI50 [48]: 32.6 µM (inactive)
- GI50 [49]: 20 µM (inactive)
- GI50 [50]: 13.5 µM (inactive)
- GI50 [51]: 7.38 µM (inactive)
- GI50 [52]: 10.7 µM (inactive)
- GI50 [53]: 34.4 µM (inactive)
- GI50 [54]: > 100 µM (inactive)
- GI50 [55]: 23.6 µM (inactive)
- GI50 [56]: 45 µM (inactive)

Compound: O=C(c1ccco1)c1ccccc1C(=O)c1ccco1
- GI50 [1]: > 100 µM (inactive)
- GI50 [2]: > 100 µM (inactive)
- GI50 [57]: > 100 µM
- GI50 [3]: > 100 µM (inactive)
- GI50 [4]: > 100 µM (inactive)
- GI50 [5]: > 100 µM (inactive)
- GI50 [6]: > 100 µM (inactive)
- GI50 [7]: > 100 µM (inactive)
- GI50 [8]: > 100 µM (inactive)
- GI50 [9]: > 100 µM (inactive)
- GI50 [11]: > 100 µM (inactive)
- GI50 [12]: > 100 µM (inactive)
- GI50 [13]: > 100 µM (inactive)
- GI50 [14]: > 100 µM (inactive)
- GI50 [15]: > 100 µM (inactive)
- GI50 [16]: > 100 µM (inactive)
- GI50 [17]: > 100 µM (inactive)
- GI50 [18]: > 100 µM (inactive)
- GI50 [19]: > 100 µM (inactive)
- GI50 [20]: > 100 µM (inactive)
- GI50 [21]: > 100 µM (inactive)
- GI50 [22]: > 100 µM (inactive)
- GI50 [23]: > 100 µM (inactive)
- GI50 [25]: > 100 µM (inactive)
- GI50 [26]: > 100 µM (inactive)
- GI50 [27]: > 100 µM (inactive)
- GI50 [28]: > 100 µM (inactive)
- GI50 [29]: 61.5 µM (inactive)
- GI50 [58]: > 100 µM (inactive)
- GI50 [30]: > 100 µM (inactive)
- GI50 [31]: > 100 µM (inactive)
- GI50 [32]: > 100 µM (inactive)
- GI50 [33]: > 100 µM (inactive)
- GI50 [34]: > 100 µM (inactive)
- GI50 [35]: > 100 µM (inactive)
- GI50 [36]: > 100 µM (inactive)
- GI50 [37]: > 100 µM (inactive)
- GI50 [38]: > 100 µM (inactive)
- GI50 [39]: > 100 µM (inactive)
- GI50 [40]: > 100 µM (inactive)
- GI50 [41]: > 100 µM (inactive)
- GI50 [42]: > 100 µM (inactive)
- GI50 [43]: > 100 µM (inactive)
- GI50 [44]: > 100 µM (inactive)
- GI50 [45]: > 100 µM (inactive)
- GI50 [46]: > 100 µM (inactive)
- GI50 [47]: > 100 µM (inactive)
- GI50 [48]: > 100 µM (inactive)
- GI50 [59]: > 100 µM (inactive)
- GI50 [49]: > 100 µM (inactive)
- GI50 [50]: > 100 µM (inactive)
- GI50 [52]: > 100 µM (inactive)
- GI50 [53]: > 100 µM (inactive)
- GI50 [54]: > 100 µM (inactive)
- GI50 [55]: > 100 µM (inactive)
- GI50 [56]: > 100 µM (inactive)
